# Reference: US10457710B2, “Antimicrobial peptides, their variants and uses” (priority 2015, dated 2019)
# Tests used:
# Test in all cases: MIC, microdilution, clinical strains
# Format in all cases: cell-based
# [1] = test system: clinical strains of A. johnsonii; set-up: unit: μg/ml; details: Acinetobacter johnsonii strain 1, Muller Hinton broth-cation adjusted, 0.02% BSA, 0.2% acetic acid
# Protocol: (§1) Minimum inhibition concetrations (MICs) were determined against Escherichia coli (ATCC 25922), Staphylococcus aureus (ATCC 25923), Klebsiella pneumoniae (ATCC 10031) and Pseudomonas aeruginosa (ATCC 27853). Also clinical strains of E. coli, K. pneumoniae, E. cloacae, P. aeruginosa, Serratia marcescens, Proteus mirabilis, S. pneumoniae, Acinetobacter baumannii, A. johnsonii and S. aureus were used for MICs assays. Additionally, clinical strains of yeast including Candida albicans, C. glabrata, C. parapsilosis and C. quillermondiae were used. The susceptibility of these microorganisms to Chain peptides were determined using micro broth dilution assay. Colonies of the respective microorganism from Muller Hinton (MH) agar plates incubated overnight were suspended in MH broth media and final concentration of microorganism was adjusted to 5.0×10^5 cfu/ml. An aliquot of 10 μl of each Chain peptide, or gentamicin, tetracycline as reference antibiotics were added in differing concentrations along with 90 μl of bacterial suspension to 96 well polypropylene plates and incubated at 37° C. for 20 to 24 hours. Concentrations of Chain peptides and reference antibiotics ranged from 0.125 to 128 μg/ml and the MICs were recorded as the lowest concentration with no visual growth of bacteria. Similarly, antifungal MICs were tested in Potato dextrose broth.
# (§2) Clinical strains of yeasts including Candida albicans, C. glabrata, C. parapsilosis and C. quillermondiae were also tested with the 12 Chain peptides. The minimum inhibitory concentration (MICs) varied between these peptides and are presented in Tables 4a, 4b, 4c and 5a, 5b, 5c. Peptides Chain 105, 201 and 308 are broad spectrum antimicrobials with MICs between 0.5-32 μg/ml against all the bacteria and yeasts tested, except Serratia marcescens and Proteus mirabilis, against which the MICs were between 64-128 μg/ml. Peptide Chain 306 has narrow spectrum activity against E. coli at 1 μg/ml and for the rest of the bacterial strains at >32 μg/ml (FIG. 10c).
# [2] = test system: clinical strains of Acinetobacter baumannii; set-up: unit: μg/ml; details: 0.02% BSA, 0.2% acetic acid
# Protocol: as §1, §2
# [3] = test system: clinical strains of S. pneumoniae; details: 0.02% BSA, 0.2% acetic acid
# Procedure, shortened: (§3)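 Overnight MH agar colonies were suspended in MH broth to 5.0×10^5 cfu/ml, mixed with serial peptide dilutions (0.125–128 μg/ml) and incubated at 37° C for 20 to 24 hours. Yeast MICs were run the same way in potato dextrose broth, and wells were scored visually.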
# [4] = test system: clinical strains of K. pneumoniae; details: 0.02% BSA, 0.2% acetic acid
# Procedure, shortened: as §3
# [5] = test system: clinical strains of E. coli; details: microdilution, Muller Hinton broth-cation adjusted, 0.02% BSA, 0.2% acetic acid
# Procedure, shortened: as §3
# [6] = test system: clinical strains of E. cloacae; details: 0.02% BSA, 0.2% acetic acid
# Procedure, shortened: as §3
# [7] = test system: clinical strains of Serratia marcescens; details: 0.02% BSA, 0.2% acetic acid
# Procedure, shortened: as §3
# [8] = test system: clinical strains of Proteus mirabilis; details: 0.02% BSA, 0.2% acetic acid
# Procedure, shortened: as §3
# [9] = test system: clinical strains of P. aeruginosa; details: 0.02% BSA, 0.2% acetic acid
# Procedure, shortened: as §3
# [10] = test system: clinical strains of S. aureus; details: 0.02% BSA, 0.2% acetic acid
# Procedure, shortened: as §3
substance,measurement,setting,value
Gentamicin [reference compound],Minimum inhibitory concentration,[1],0.25
same,Minimum inhibitory concentration,"[2]; Acinetobacter baumannii strain 1, Muller Hinton broth-cation adjusted",0.5
same,Minimum inhibitory concentration,"[2]; Acinetobacter baumannii strain 2, Muller Hinton broth-cation adjusted",0.25
same,Minimum inhibitory concentration,"[2]; Acinetobacter baumannii strain 3, Muller Hinton broth-cation adjusted",0.5
same,Minimum inhibitory concentration,"[2]; Acinetobacter baumannii strain 4, Muller Hinton broth-cation adjusted",0.5
same,Minimum inhibitory concentration,"[2]; Acinetobacter baumannii strain 5, Muller Hinton broth-cation adjusted",0.25
same,Minimum inhibitory concentration,"[3]; Streptococcus pneumoniae strain 1, Muller Hinton broth-cation adjusted",2
same,Minimum inhibitory concentration,"[3]; Streptococcus pneumoniae strain 2, Muller Hinton broth-cation adjusted",2
same,Minimum inhibitory concentration,"[3]; Streptococcus pneumoniae strain 3, Muller Hinton broth-cation adjusted",2
same,Minimum inhibitory concentration,"[3]; Streptococcus pneumoniae strain 4, Muller Hinton broth-cation adjusted",2
same,Minimum inhibitory concentration,"[3]; Streptococcus pneumoniae strain 5, Muller Hinton broth-cation adjusted",1
same,Minimum inhibitory concentration,"[4]; Klebsiella pneumoniae strain 1, Muller Hinton broth-cation adjusted",2
same,Minimum inhibitory concentration,"[4]; Klebsiella pneumoniae strain 2, Muller Hinton broth-cation adjusted",0.25
same,Minimum inhibitory concentration,"[4]; Klebsiella pneumoniae strain 3, Muller Hinton broth-cation adjusted",2
same,Minimum inhibitory concentration,"[4]; Klebsiella pneumoniae strain 4, Muller Hinton broth-cation adjusted",2
same,Minimum inhibitory concentration,"[4]; Klebsiella pneumoniae strain 5, Muller Hinton broth-cation adjusted",4
same,Minimum inhibitory concentration,[5]; Escherichia coli strain 1,0.5
same,Minimum inhibitory concentration,[5]; Escherichia coli strain 2,0.5
same,Minimum inhibitory concentration,[5]; Escherichia coli strain 3,1
same,Minimum inhibitory concentration,[5]; Escherichia coli strain 4,1
same,Minimum inhibitory concentration,[5]; Escherichia coli strain 5,1
same,Minimum inhibitory concentration,"[6]; Enterobacter cloacae strain 1, Muller Hinton broth-cation adjusted",0.25
same,Minimum inhibitory concentration,"[6]; Enterobacter cloacae strain 2, Muller Hinton broth-cation adjusted",0.25
same,Minimum inhibitory concentration,"[6]; Enterobacter cloacae strain 3, Muller Hinton broth-cation adjusted",0.25
same,Minimum inhibitory concentration,"[6]; Enterobacter cloacae strain 4, Muller Hinton broth-cation adjusted",0.25
same,Minimum inhibitory concentration,"[6]; Enterobacter cloacae strain 5, Muller Hinton broth-cation adjusted",0.25
same,Minimum inhibitory concentration,"[7]; Serratia marcescens strain 1, Muller Hinton broth-cation adjusted",1
same,Minimum inhibitory concentration,"[7]; Serratia marcescens strain 2, Muller Hinton broth-cation adjusted",2
same,Minimum inhibitory concentration,"[7]; Serratia marcescens strain 3, Muller Hinton broth-cation adjusted",1
same,Minimum inhibitory concentration,"[7]; Serratia marcescens strain 4, Muller Hinton broth-cation adjusted",1
same,Minimum inhibitory concentration,"[7]; Serratia marcescens strain 5, Muller Hinton broth-cation adjusted",1
same,Minimum inhibitory concentration,"[8]; Proteus mirabilis strain 1, Muller Hinton broth-cation adjusted",2
same,Minimum inhibitory concentration,"[8]; Proteus mirabilis strain 2, Muller Hinton broth-cation adjusted",2
same,Minimum inhibitory concentration,"[8]; Proteus mirabilis strain 3, Muller Hinton broth-cation adjusted",>128
same,Minimum inhibitory concentration,"[8]; Proteus mirabilis strain 4, Muller Hinton broth-cation adjusted",8
same,Minimum inhibitory concentration,"[8]; Proteus mirabilis strain 5, Muller Hinton broth-cation adjusted",>128
same,Minimum inhibitory concentration,"[9]; Pseudomonas aeruginosa strain 1, Muller Hinton broth-cation adjusted",1
same,Minimum inhibitory concentration,"[9]; Pseudomonas aeruginosa strain 2, Muller Hinton broth-cation adjusted",0.5
same,Minimum inhibitory concentration,"[9]; Pseudomonas aeruginosa strain 3, Muller Hinton broth-cation adjusted",0.5
same,Minimum inhibitory concentration,"[9]; Pseudomonas aeruginosa strain 4, Muller Hinton broth-cation adjusted",0.5
same,Minimum inhibitory concentration,"[9]; Pseudomonas aeruginosa strain 5, Muller Hinton broth-cation adjusted",0.25
same,Minimum inhibitory concentration,"[10]; Staphylococcus aureus strain 1, Muller Hinton broth-cation adjusted",0.5
same,Minimum inhibitory concentration,"[10]; Staphylococcus aureus strain 2, Muller Hinton broth-cation adjusted",0.5
same,Minimum inhibitory concentration,"[10]; Staphylococcus aureus strain 3, Muller Hinton broth-cation adjusted",0.5
same,Minimum inhibitory concentration,"[10]; Staphylococcus aureus strain 4, Muller Hinton broth-cation adjusted",0.5
same,Minimum inhibitory concentration,"[10]; Staphylococcus aureus strain 5, Muller Hinton broth-cation adjusted",0.5
